# Data reported in article PMC5218480 (PLoS ONE, 2017).
# Test system: MV-4-11 cells
# Assay: Gene expression microarray analysis (Affymetrix PrimeView) and GSEA
# Format: cell-based, human
# Parameters: RFU PODN (11730768_x_at) / Fold change /veh PODN (11730768_x_at) / RFU LINC00158 (11744669_a_at) / Fold change /veh LINC00158 (11744669_a_at) / RFU DUSP10 (11751237_a_at) / Fold change /veh DUSP10 (11751237_a_at) / RFU ID3 (11757404_x_at) / Fold change /veh ID3 (11757404_x_at) / RFU PLEKHG5 (11737974_s_at) / Fold change /veh PLEKHG5 (11737974_s_at) / RFU LRRC4B (11730491_at) / Fold change /veh LRRC4B (11730491_at) / RFU GIMAP4 (11747438_a_at) / Fold change /veh GIMAP4 (11747438_a_at) / RFU KRT8 (11758183_x_at) / Fold change /veh KRT8 (11758183_x_at) / RFU CNN1 (11734310_a_at) / Fold change /veh CNN1 (11734310_a_at) / RFU VPS37D (11726825_at) / Fold change /veh VPS37D (11726825_at) / RFU C10orf10 (11716522_x_at) / Fold change /veh C10orf10 (11716522_x_at) / RFU KIR2DL2 /// KIR2DL4 /// KIR2DL5A /// KIR2DL5B /// KIR2DS1 /// KIR2DS2 /// KIR2DS3 /// KIR2DS4 /// KIR3DL3 /// KIR3DL3 /// KIR3DS1 (11738374_at) / Fold change /veh KIR2DL2 /// KIR2DL4 /// KIR2DL5A /// KIR2DL5B /// KIR2DS1 /// KIR2DS2 /// KIR2DS3 /// KIR2DS4 /// KIR3DL3 /// KIR3DL3 /// KIR3DS1 (11738374_at) / RFU C1QL1 (11718748_at) / Fold change /veh C1QL1 (11718748_at) / RFU TMPRSS4 (11747572_a_at) / Fold change /veh TMPRSS4 (11747572_a_at) / RFU HAMP (11756126_x_at) / Fold change /veh HAMP (11756126_x_at) / RFU RNFT2 (11725882_a_at) / Fold change /veh RNFT2 (11725882_a_at) / RFU NR4A2 (11747474_a_at) / Fold change /veh NR4A2 (11747474_a_at) / RFU ABCC12 (11746883_a_at) / Fold change /veh ABCC12 (11746883_a_at) / RFU TMEM136 (11760407_x_at) / Fold change /veh TMEM136 (11760407_x_at) / RFU CLDN22 /// WWC2 (11732394_at) / Fold change /veh CLDN22 /// WWC2 (11732394_at) / RFU HLA-DPB1 (11760878_x_at) / Fold change /veh HLA-DPB1 (11760878_x_at) / RFU SPINT1 (11716480_a_at) / Fold change /veh SPINT1 (11716480_a_at) / RFU GAP43 (11754022_s_at) / Fold change /veh GAP43 (11754022_s_at) / RFU A4GNT (11735810_at) / Fold change /veh A4GNT (11735810_at) / RFU PRB3 (11715151_x_at) / Fold change /veh PRB3 (11715151_x_at) / RFU TUBB4B (11761932_at) / Fold change /veh TUBB4B (11761932_at) / RFU CAPN14 (11732068_a_at) / Fold change /veh CAPN14 (11732068_a_at) / RFU TMCC2 (11721928_a_at) / Fold change /veh TMCC2 (11721928_a_at) / RFU IRGQ (11745062_a_at) / Fold change /veh IRGQ (11745062_a_at) / RFU FAM174B (11720279_a_at) / Fold change /veh FAM174B (11720279_a_at) / RFU TMPRSS4 (11748680_a_at) / Fold change /veh TMPRSS4 (11748680_a_at) / RFU FAM212B (11763350_a_at) / Fold change /veh FAM212B (11763350_a_at) / RFU PLEKHG5 (11743358_a_at) / Fold change /veh PLEKHG5 (11743358_a_at) / RFU ZSCAN30 (11745921_a_at) / Fold change /veh ZSCAN30 (11745921_a_at) / RFU CMKLR1 (11741424_a_at) / Fold change /veh CMKLR1 (11741424_a_at) / RFU LOC101060620 /// MAPK8IP1 (11723275_at) / Fold change /veh LOC101060620 /// MAPK8IP1 (11723275_at) / RFU SPTSSB (11747773_x_at) / Fold change /veh SPTSSB (11747773_x_at) / RFU PRSS12 (11739890_at) / Fold change /veh PRSS12 (11739890_at) / RFU BIN1 (11741810_x_at) / Fold change /veh BIN1 (11741810_x_at) / RFU WNT11 (11732464_a_at) / Fold change /veh WNT11 (11732464_a_at) / RFU C10orf10 (11716521_a_at) / Fold change /veh C10orf10 (11716521_a_at) / RFU C5orf56 (11738089_at) / Fold change /veh C5orf56 (11738089_at) / RFU CYB561 (11721691_x_at) / Fold change /veh CYB561 (11721691_x_at) / RFU ANKRD19P (11752326_a_at) / Fold change /veh ANKRD19P (11752326_a_at) / RFU OR2T12 /// OR2T33 /// OR2T8 (11738714_s_at) / Fold change /veh OR2T12 /// OR2T33 /// OR2T8 (11738714_s_at) / RFU VCAN (11748164_a_at) / Fold change /veh VCAN (11748164_a_at) / RFU JSRP1 (11732532_at) / Fold change /veh JSRP1 (11732532_at) / RFU KRTAP10-11 (11738290_x_at) / Fold change /veh KRTAP10-11 (11738290_x_at) / RFU MYO3A (11730013_a_at) / Fold change /veh MYO3A (11730013_a_at) / RFU EBF3 (11725865_a_at) / Fold change /veh EBF3 (11725865_a_at) / RFU CAMK2N1 (11719241_x_at) / Fold change /veh CAMK2N1 (11719241_x_at) / RFU C5orf56 (11738088_a_at) / Fold change /veh C5orf56 (11738088_a_at) / RFU OLFML3 (11715873_a_at) / Fold change /veh OLFML3 (11715873_a_at) / RFU LOC100653217 /// NTM (11731650_a_at) / Fold change /veh LOC100653217 /// NTM (11731650_a_at) / RFU MAPK11 (11762145_a_at) / Fold change /veh MAPK11 (11762145_a_at) / RFU FIZ1 (11724087_x_at) / Fold change /veh FIZ1 (11724087_x_at) / RFU OASL (11726364_x_at) / Fold change /veh OASL (11726364_x_at) / RFU SOX15 (11748057_x_at) / Fold change /veh SOX15 (11748057_x_at) / RFU CD79A (11719716_a_at) / Fold change /veh CD79A (11719716_a_at) / RFU HIST1H1D (11736915_at) / Fold change /veh HIST1H1D (11736915_at) / RFU CASKIN2 (11723855_a_at) / Fold change /veh CASKIN2 (11723855_a_at) / RFU LOC730098 (11760151_x_at) / Fold change /veh LOC730098 (11760151_x_at) / RFU OR4N2 (11742367_at) / Fold change /veh OR4N2 (11742367_at) / RFU PRRT2 (11749266_a_at) / Fold change /veh PRRT2 (11749266_a_at) / RFU SNX32 (11753110_a_at) / Fold change /veh SNX32 (11753110_a_at) / RFU CDHR5 (11726645_a_at) / Fold change /veh CDHR5 (11726645_a_at) / RFU RCAN1 (11760418_a_at) / Fold change /veh RCAN1 (11760418_a_at) / RFU FAM167A (11723789_a_at) / Fold change /veh FAM167A (11723789_a_at) / RFU FAM26E (11764081_at) / Fold change /veh FAM26E (11764081_at) / RFU ISYNA1 (11749810_s_at) / Fold change /veh ISYNA1 (11749810_s_at) / RFU ACY1 (11761880_at) / Fold change /veh ACY1 (11761880_at) / RFU 11764098_at / Fold change /veh 11764098_at / RFU SAMD14 (11745864_x_at) / Fold change /veh SAMD14 (11745864_x_at) / RFU NPB (11741838_a_at) / Fold change /veh NPB (11741838_a_at) / RFU TMPRSS6 (11731388_a_at) / Fold change /veh TMPRSS6 (11731388_a_at) / RFU KRTAP10-2 (11738614_at) / Fold change /veh KRTAP10-2 (11738614_at) / RFU ARHGAP8 /// PRR5-ARHGAP8 (11727945_x_at) / Fold change /veh ARHGAP8 /// PRR5-ARHGAP8 (11727945_x_at) / RFU KRTAP5-7 /// NADSYN1 (11734609_at) / Fold change /veh KRTAP5-7 /// NADSYN1 (11734609_at) / RFU RASL12 (11751679_a_at) / Fold change /veh RASL12 (11751679_a_at) / RFU CDKN2B (11736163_a_at) / Fold change /veh CDKN2B (11736163_a_at) / RFU PRF1 (11729649_at) / Fold change /veh PRF1 (11729649_at) / RFU, ZNF638 /// ZNF638-IT1 / Fold change vs veh, ZNF638 /// ZNF638-IT1 / RFU, PANK3 / Fold change vs veh, PANK3 / RFU, SH3YL1 / Fold change vs veh, SH3YL1 / RFU, ZEB2 / Fold change vs veh, ZEB2 / RFU, NRIP1 / Fold change vs veh, NRIP1 / RFU, PTTG1IP / Fold change vs veh, PTTG1IP / RFU, CAPN2 / Fold change vs veh, CAPN2 / RFU, MED14 / Fold change vs veh, MED14 / RFU, SNORA58 / Fold change vs veh, SNORA58 / RFU, C1orf63 / Fold change vs veh, C1orf63 / RFU, LRRFIP1 / Fold change vs veh, LRRFIP1 / RFU, NDUFAF7 / Fold change vs veh, NDUFAF7 / RFU, SLC12A2 / Fold change vs veh, SLC12A2 / RFU, IBTK / Fold change vs veh, IBTK / RFU, ESF1 / Fold change vs veh, ESF1 / Fold change vs veh, TMEM50B / RFU, TAOK1 / Fold change vs veh, TAOK1 / RFU, ACBD3 / Fold change vs veh, ACBD3 / RFU, TMA16 / Fold change vs veh, TMA16 / RFU, RWDD3 / Fold change vs veh, RWDD3 / RFU, BCAT1 / Fold change vs veh, BCAT1 / RFU, EDEM3 / Fold change vs veh, EDEM3 / RFU, TMEM33 / Fold change vs veh, TMEM33 / RFU, WDR75 / Fold change vs veh, WDR75 / RFU, AHCTF1 / Fold change vs veh, AHCTF1 / RFU, TFRC / Fold change vs veh, TFRC / RFU, ZDHHC17 / Fold change vs veh, ZDHHC17 / RFU, NOM1 / Fold change vs veh, NOM1 / RFU, ARL8B / Fold change vs veh, ARL8B / RFU, ZBTB11 / Fold change vs veh, ZBTB11 / RFU, TAMM41 / Fold change vs veh, TAMM41 / RFU, KIAA1704 /// LOC100996395 / Fold change vs veh, KIAA1704 /// LOC100996395 / RFU, ING1 / Fold change vs veh, ING1 / RFU, TRMT61B / Fold change vs veh, TRMT61B / RFU, FUBP3 / Fold change vs veh, FUBP3 / RFU, TP53 / Fold change vs veh, TP53 / RFU, TNKS2 / Fold change vs veh, TNKS2 / RFU, ZFP14 / Fold change vs veh, ZFP14 / RFU, ACTR2 / Fold change vs veh, ACTR2 / RFU, PPP3R1 / Fold change vs veh, PPP3R1 / RFU, PIK3R1 / Fold change vs veh, PIK3R1 / RFU, HNRNPA1 / Fold change vs veh, HNRNPA1 / RFU, RNF170 / Fold change vs veh, RNF170 / RFU, ZNF28 / Fold change vs veh, ZNF28 / RFU, RNGTT / Fold change vs veh, RNGTT / RFU, OGT / Fold change vs veh, OGT / RFU, BRD1 / Fold change vs veh, BRD1 / RFU, MARS / Fold change vs veh, MARS / RFU, ZNF655 / Fold change vs veh, ZNF655 / RFU, FAHD1 / Fold change vs veh, FAHD1 / RFU, BDP1 / Fold change vs veh, BDP1 / RFU, LRRCC1 / Fold change vs veh, LRRCC1 / RFU, ARID1A / Fold change vs veh, ARID1A / RFU, ZNF146 / Fold change vs veh, ZNF146 / RFU, ZNF330 / Fold change vs veh, ZNF330 / RFU, GPN3 / Fold change vs veh, GPN3 / RFU, C9orf123 / Fold change vs veh, C9orf123 / RFU, N4BP2L2 / Fold change vs veh, N4BP2L2 / RFU, ARFIP1 / Fold change vs veh, ARFIP1 / RFU, FAM179B / Fold change vs veh, FAM179B / RFU, BCL10 / Fold change vs veh, BCL10 / RFU, UHRF1BP1L / Fold change vs veh, UHRF1BP1L / RFU, BET1 / Fold change vs veh, BET1 / RFU, CNOT2 / Fold change vs veh, CNOT2 / RFU, ZNF268 / Fold change vs veh, ZNF268 / Fold change vs veh, ZNF507 / RFU, DGCR2 / Fold change vs veh, DGCR2 / RFU, WDSUB1 / Fold change vs veh, WDSUB1 / Fold change vs veh, HSP90B1 /// MIR3652 / RFU, ADSS / Fold change vs veh, ADSS / RFU, GK / Fold change vs veh, GK / RFU, ZNF148 / Fold change vs veh, ZNF148 / RFU, TAF9 / Fold change vs veh, TAF9 / RFU, SLC1A5 / Fold change vs veh, SLC1A5 / RFU, SLMO2 / Fold change vs veh, SLMO2 / RFU, ABCC4 / Fold change vs veh, ABCC4 / RFU, LOC101060439 /// RAP1B / Fold change vs veh, LOC101060439 /// RAP1B / RFU, RFX7 / Fold change vs veh, RFX7 / RFU, GTPBP10 / Fold change vs veh, GTPBP10 / RFU, CNEP1R1 / Fold change vs veh, CNEP1R1 / RFU, BIVM-ERCC5 /// ERCC5 / Fold change vs veh, BIVM-ERCC5 /// ERCC5 / RFU, ILF3 / Fold change vs veh, ILF3 / RFU 11762660_at / Fold change /veh 11762660_at / RFU VCAN (11757783_s_at) / Fold change /veh VCAN (11757783_s_at) / RFU DDX43 (11728927_at) / Fold change /veh DDX43 (11728927_at) / RFU KRT8 (11758188_x_at) / Fold change /veh KRT8 (11758188_x_at) / RFU NKD1 (11759106_at) / Fold change /veh NKD1 (11759106_at) / RFU SRD5A1 (11742802_a_at) / Fold change /veh SRD5A1 (11742802_a_at) / RFU TPSAB1 /// TPSB2 (11721975_s_at) / Fold change /veh TPSAB1 /// TPSB2 (11721975_s_at) / RFU GSTM3 (11746129_a_at) / Fold change /veh GSTM3 (11746129_a_at) / RFU IL23R (11737362_x_at) / Fold change /veh IL23R (11737362_x_at) / RFU TMEM51 (11727254_a_at) / Fold change /veh TMEM51 (11727254_a_at) / RFU PIWIL2 (11732686_x_at) / Fold change /veh PIWIL2 (11732686_x_at) / RFU ORM1 (11744905_x_at) / Fold change /veh ORM1 (11744905_x_at) / RFU CCDC152 (11743942_at) / Fold change /veh CCDC152 (11743942_at) / RFU ECM1 (11717891_a_at) / Fold change /veh ECM1 (11717891_a_at) / RFU IL23R (11748794_a_at) / Fold change /veh IL23R (11748794_a_at) / RFU TNFAIP8L3 (11732012_x_at) / Fold change /veh TNFAIP8L3 (11732012_x_at) / RFU MBOAT4 (11741988_at) / Fold change /veh MBOAT4 (11741988_at) / RFU 11764193_at / Fold change /veh 11764193_at / RFU TMEM53 (11763286_at) / Fold change /veh TMEM53 (11763286_at) / RFU MAGEB2 (11727129_at) / Fold change /veh MAGEB2 (11727129_at) / RFU TMEM200A (11744735_a_at) / Fold change /veh TMEM200A (11744735_a_at) / RFU CCDC152 (11751479_a_at) / Fold change /veh CCDC152 (11751479_a_at) / RFU FAM211A (11726209_a_at) / Fold change /veh FAM211A (11726209_a_at) / RFU RGS16 (11746705_a_at) / Fold change /veh RGS16 (11746705_a_at) / RFU VCAN (11755009_s_at) / Fold change /veh VCAN (11755009_s_at) / RFU RHOB (11743442_s_at) / Fold change /veh RHOB (11743442_s_at) / RFU RGS16 (11720943_a_at) / Fold change /veh RGS16 (11720943_a_at) / RFU RGS16 (11720944_at) / Fold change /veh RGS16 (11720944_at) / RFU, VPS4B / Fold change vs veh, VPS4B / RFU, CREB1 / Fold change vs veh, CREB1 / RFU, DNAJC13 / Fold change vs veh, DNAJC13 / RFU, GNAQ / Fold change vs veh, GNAQ / RFU, CDK5R1 / Fold change vs veh, CDK5R1 / RFU, ZRANB3 / Fold change vs veh, ZRANB3 / RFU, CUL4A / Fold change vs veh, CUL4A / RFU, CCNY / Fold change vs veh, CCNY / RFU, UFL1 / Fold change vs veh, UFL1 / RFU, COG3 / Fold change vs veh, COG3 / RFU, DIAPH2 / Fold change vs veh, DIAPH2 / RFU, SKA2 / Fold change vs veh, SKA2 / RFU, AFF3 / Fold change vs veh, AFF3 / RFU, LMF1 / Fold change vs veh, LMF1 / RFU, IPO11 / Fold change vs veh, IPO11 / RFU, DFFB / Fold change vs veh, DFFB / RFU, FOXP1 / Fold change vs veh, FOXP1 / RFU, CARD8 / Fold change vs veh, CARD8 / RFU, STRN3 / Fold change vs veh, STRN3 / RFU, ADK / Fold change vs veh, ADK / RFU, RASSF2 / Fold change vs veh, RASSF2 / RFU, WIPF1 / Fold change vs veh, WIPF1 / RFU, LARP1B / Fold change vs veh, LARP1B / RFU, RASA1 / Fold change vs veh, RASA1 / RFU, RB1 / Fold change vs veh, RB1 / RFU, PPFIA1 / Fold change vs veh, PPFIA1 / RFU, MAT2A / Fold change vs veh, MAT2A / RFU, CCT5 / Fold change vs veh, CCT5 / RFU, WDR92 / Fold change vs veh, WDR92 / RFU, CUX1 / Fold change vs veh, CUX1 / RFU, TTC7A / Fold change vs veh, TTC7A / RFU, TMEM135 / Fold change vs veh, TMEM135 / RFU, DEPTOR / Fold change vs veh, DEPTOR / RFU, CPM / Fold change vs veh, CPM / RFU, DNAJB6 / Fold change vs veh, DNAJB6 / RFU, CACNA2D3 / Fold change vs veh, CACNA2D3 / RFU, DTX4 / Fold change vs veh, DTX4 / RFU, TFCP2 / Fold change vs veh, TFCP2 / RFU, GMCL1 /// GMCL1P1 / Fold change vs veh, GMCL1 /// GMCL1P1 / RFU, AEBP2 / Fold change vs veh, AEBP2 / RFU, SNHG1 /// SNORD22 /// SNORD25 /// SNORD26 /// SNORD27 /// SNORD28 /// SNORD29 /// SNORD31 / Fold change vs veh, SNHG1 /// SNORD22 /// SNORD25 /// SNORD26 /// SNORD27 /// SNORD28 /// SNORD29 /// SNORD31 / Fold change (Aza/veh), C12orf56 (ProbeSet 11735607_a_at) / Fold change (ACY-1035/veh), C12orf56 (ProbeSet 11735607_a_at) / Fold change (Aza/veh), FGFR1OP (ProbeSet 11751329_s_at) / Fold change (ACY-1035/veh), FGFR1OP (ProbeSet 11751329_s_at) / Fold change (Aza/veh), VPS36 (ProbeSet 11739960_a_at) / Fold change (ACY-1035/veh), VPS36 (ProbeSet 11739960_a_at) / RFU SYPL1 (11715823_x_at) / Fold change /veh SYPL1 (11715823_x_at) / RFU IGFBP7 (11715501_s_at) / Fold change /veh IGFBP7 (11715501_s_at) / RFU REEP3 (11722064_at) / Fold change /veh REEP3 (11722064_at) / RFU IGLL1 (11728026_x_at) / Fold change /veh IGLL1 (11728026_x_at): dose or concentration left out as unconfirmed
# Conditions: MV-4-11 cells, 48 hours
smiles,measurement,value
Nc1ncn([C@@H]2O[C@H](CO)[C@@H](O)[C@H]2O)c(=O)n1 [azacitidine],RFU CASKIN2 (11723855_a_at),31.47 RFU
